From patent EP4755384A1, “PHARMACEUTICAL COMPOSITION CONTAINING ANDROGEN RECEPTOR INHIBITOR/ANTAGONIST, METHOD AND USE” (Suzhou Kintor Pharmaceuticals, Inc., priority 2023, dated 2025)

Columns and labels:
mice [1] = assay: In-vivo efficacy experiment 1: hair scoring in depilated mice given DHT; set-up: key: 0 = no skin darkening, 5 = complete hair growth
Description: (§1) 100 mice were deeply anesthetized. First, the hair on the back of the mice was shaved off with an animal hair clipper. Then, depilatory cream (Veet, https://item.jd.com/6291245.html) was evenly applied to the skin surface of the mice. After leaving it for 7-10 minutes, the remaining hair was gently scraped off against the hair growth direction with a depilatory spatula. Finally, the residual depilatory cream on the skin surface was thoroughly washed off with a wet wipe to avoid skin burns in the mice.
(§2) The main observation indicators of this experiment are shown in FIG. 12 (literature on hair scoring: Biomolecules & Therapeutics, 17(3), 241-248 (2009)), which is described as follows: (Score 0: No darkening of skin colour observed in any areas; Score 1: Darkening of skin area from greyish to black; Score 2: Visible short hairs; Score 3: Sparse hairs; Score 4: Dense hairs; Score 5: Complete hair growth). After depilation, the mice were photographed and scored three times a week until the end of the experiment.
as §1, with “cream” for “cream (Veet, https://item.jd.com/6291245.html)”
DHT and test substances (compound of formula I and minoxidil) were administered starting on the day following depilation, which was recorded as Day 1 (the day of depilation was recorded as Day 0). 64 mice in good condition were randomly selected and assigned to each group. Table 1 Experimental grouping
(§3) According to the grouping in Table 1, and the corresponding administration dose, test substance concentration and administration volume, […] above experimental design and methods. For groups G7 and G8, which received a combined administration of the compound of formula I and minoxidil, one drug was administered first followed by the other, with the administration interval between the two drugs not exceeding 1 minute.
(§4) Starting from the first day of administration, body weight was weighed and recorded twice a week, and hair regrowth (anagen) scoring and photography were performed […], until the end of the experiment. Scoring was conducted according to the criteria described in the experimental design.

mice [2] = assay: In-vivo efficacy experiment 2: hair scoring in depilated mice given DHT; set-up: key: 0 = no skin darkening, 5 = complete hair growth
Description: as §1, with “120” for “100”
DHT and test substances (compound of formula I and minoxidil) were administered starting on the day following depilation, which was recorded as Day 1 (the day of depilation was recorded as Day 0). 86 mice in good condition were randomly selected and assigned to each group.
as §2, with “experiment. Table 4 Experimental grouping” for “experiment.”
as §3, with “4,” for “1,”, “groups G6,” for “groups”
as §4

[3] = Day 11, DHT model group: DHT 30 mg/kg subcutaneous injection QD + vehicle topical
[4] = Day 21, DHT model group: DHT 30 mg/kg subcutaneous injection QD + vehicle topical
[5] = Day 11, compound of formula I 0.5% (5 mg/mL) 150 µL topical QD, DHT 30 mg/kg subcutaneous QD
[6] = Day 21, compound of formula I 0.5% (5 mg/mL) 150 µL topical QD, DHT 30 mg/kg subcutaneous QD
[7] = Day 11, minoxidil 5% (50 mg/mL) 150 µL topical QD, DHT 30 mg/kg subcutaneous QD
[8] = Day 21, minoxidil 5% (50 mg/mL) 150 µL topical QD, DHT 30 mg/kg subcutaneous QD

## C[C@]12CCC(=O)C[C@@H]1CC[C@@H]1[C@@H]2CC[C@]2(C)[C@@H](O)CC[C@@H]12 [DHT, Dihydrotestosterone]
Mice [1]; Day 7, DHT model group: DHT 30 mg/kg subcutaneous injection QD + vehicle topical
  Hair scoring in mice, Score: 0.00
Mice [1]; Day 9, DHT model group: DHT 30 mg/kg subcutaneous injection QD + vehicle topical
  Hair scoring in mice, Score: 0.00
Mice [1]; [3]
  Hair scoring in mice, Score: 0.13
Mice [1]; Day 14, DHT model group: DHT 30 mg/kg subcutaneous injection QD + vehicle topical
  Hair scoring in mice, Score: 0.38
Mice [1]; Day 16, DHT model group: DHT 30 mg/kg subcutaneous injection QD + vehicle topical
  Hair scoring in mice, Score: 0.63
Mice [1]; Day 18, DHT model group: DHT 30 mg/kg subcutaneous injection QD + vehicle topical
  Hair scoring in mice, Score: 1.25
Mice [1]; [4]
  Hair scoring in mice, Score: 1.75
Mice [1]; Day 23, DHT model group: DHT 30 mg/kg subcutaneous injection QD + vehicle topical
  Hair scoring in mice, Score: 2.13
Mice [2]; Day 8, DHT model group: DHT 30 mg/kg subcutaneous injection QD + vehicle topical
  Hair scoring in mice: 0.00
Mice [2]; [3]
  Hair scoring in mice: 0.00
Mice [2]; Day 15, DHT model group: DHT 30 mg/kg subcutaneous injection QD + vehicle topical
  Hair scoring in mice: 0.40
Mice [2]; Day 17, DHT model group: DHT 30 mg/kg subcutaneous injection QD + vehicle topical
  Hair scoring in mice: 0.50
Mice [2]; Day 19, DHT model group: DHT 30 mg/kg subcutaneous injection QD + vehicle topical
  Hair scoring in mice: 0.90
Mice [2]; [4]
  Hair scoring in mice: 1.10

## COc1c(C#N)ccc(N2C(=O)C(C)(C)N(c3ccc(C)nc3)C2=S)c1F [compound of formula I, 4-(4,4-dimethyl-3-(6-methylpyridin-3-yl)-5-oxo-2-thioxoimidazolidin-1-yl)-3-fluoro-2-methoxybenzonitrile]
Mice [1]; Day 7, compound of formula I 0.5% (5 mg/mL) 150 µL topical QD, DHT 30 mg/kg subcutaneous QD
  Hair scoring in mice, Score: 0.00
Mice [1]; Day 7, compound of formula I 1.0% (10 mg/mL) 150 µL topical QD, DHT 30 mg/kg subcutaneous QD
  Hair scoring in mice, Score: 0.00
Mice [1]; Day 9, compound of formula I 0.5% (5 mg/mL) 150 µL topical QD, DHT 30 mg/kg subcutaneous QD
  Hair scoring in mice, Score: 0.13
Mice [1]; Day 9, compound of formula I 1.0% (10 mg/mL) 150 µL topical QD, DHT 30 mg/kg subcutaneous QD
  Hair scoring in mice, Score: 0.13
Mice [1]; [5]
  Hair scoring in mice, Score: 0.38
Mice [1]; Day 11, compound of formula I 1.0% (10 mg/mL) 150 µL topical QD, DHT 30 mg/kg subcutaneous QD
  Hair scoring in mice, Score: 0.13
Mice [1]; Day 14, compound of formula I 0.5% (5 mg/mL) 150 µL topical QD, DHT 30 mg/kg subcutaneous QD
  Hair scoring in mice, Score: 0.88
Mice [1]; Day 14, compound of formula I 1.0% (10 mg/mL) 150 µL topical QD, DHT 30 mg/kg subcutaneous QD
  Hair scoring in mice, Score: 0.38
Mice [1]; Day 16, compound of formula I 0.5% (5 mg/mL) 150 µL topical QD, DHT 30 mg/kg subcutaneous QD
  Hair scoring in mice, Score: 1.13
Mice [1]; Day 16, compound of formula I 1.0% (10 mg/mL) 150 µL topical QD, DHT 30 mg/kg subcutaneous QD
  Hair scoring in mice, Score: 1.00
Mice [1]; Day 18, compound of formula I 0.5% (5 mg/mL) 150 µL topical QD, DHT 30 mg/kg subcutaneous QD
  Hair scoring in mice, Score: 1.75
Mice [1]; Day 18, compound of formula I 1.0% (10 mg/mL) 150 µL topical QD, DHT 30 mg/kg subcutaneous QD
  Hair scoring in mice, Score: 1.38
Mice [1]; [6]
  Hair scoring in mice, Score: 2.25
Mice [1]; Day 21, compound of formula I 1.0% (10 mg/mL) 150 µL topical QD, DHT 30 mg/kg subcutaneous QD
  Hair scoring in mice, Score: 1.88
Mice [1]; Day 23, compound of formula I 0.5% (5 mg/mL) 150 µL topical QD, DHT 30 mg/kg subcutaneous QD
  Hair scoring in mice, Score: 2.50
Mice [1]; Day 23, compound of formula I 1.0% (10 mg/mL) 150 µL topical QD, DHT 30 mg/kg subcutaneous QD
  Hair scoring in mice, Score: 2.38
Mice [2]; Day 8, compound of formula I 0.25% (2.5 mg/mL) 150 µL topical QD, DHT 30 mg/kg subcutaneous QD
  Hair scoring in mice: 0.00
Mice [2]; Day 8, compound of formula I 0.5% (5 mg/mL) 150 µL topical QD, DHT 30 mg/kg subcutaneous QD
  Hair scoring in mice: 0.00
Mice [2]; Day 11, compound of formula I 0.25% (2.5 mg/mL) 150 µL topical QD, DHT 30 mg/kg subcutaneous QD
  Hair scoring in mice: 0.00
Mice [2]; [5]
  Hair scoring in mice: 0.00
Mice [2]; Day 15, compound of formula I 0.25% (2.5 mg/mL) 150 µL topical QD, DHT 30 mg/kg subcutaneous QD
  Hair scoring in mice: 0.60
Mice [2]; Day 15, compound of formula I 0.5% (5 mg/mL) 150 µL topical QD, DHT 30 mg/kg subcutaneous QD
  Hair scoring in mice: 0.90
Mice [2]; Day 17, compound of formula I 0.25% (2.5 mg/mL) 150 µL topical QD, DHT 30 mg/kg subcutaneous QD
  Hair scoring in mice: 1.00
Mice [2]; Day 17, compound of formula I 0.5% (5 mg/mL) 150 µL topical QD, DHT 30 mg/kg subcutaneous QD
  Hair scoring in mice: 1.40
Mice [2]; Day 19, compound of formula I 0.25% (2.5 mg/mL) 150 µL topical QD, DHT 30 mg/kg subcutaneous QD
  Hair scoring in mice: 1.40
Mice [2]; Day 19, compound of formula I 0.5% (5 mg/mL) 150 µL topical QD, DHT 30 mg/kg subcutaneous QD
  Hair scoring in mice: 1.70
Mice [2]; Day 21, compound of formula I 0.25% (2.5 mg/mL) 150 µL topical QD, DHT 30 mg/kg subcutaneous QD
  Hair scoring in mice: 1.80
Mice [2]; [6]
  Hair scoring in mice: 2.20

## Nc1cc(N2CCCCC2)nc(N)[n+]1[O-] [minoxidil, Minoxidil]
Mice [1]; Day 7, minoxidil 2% (20 mg/mL) 150 µL topical QD, DHT 30 mg/kg subcutaneous QD
  Hair scoring in mice, Score: 0.00
Mice [1]; Day 7, minoxidil 5% (50 mg/mL) 150 µL topical QD, DHT 30 mg/kg subcutaneous QD
  Hair scoring in mice, Score: 0.13
Mice [1]; Day 9, minoxidil 2% (20 mg/mL) 150 µL topical QD, DHT 30 mg/kg subcutaneous QD
  Hair scoring in mice, Score: 0.29
Mice [1]; Day 9, minoxidil 5% (50 mg/mL) 150 µL topical QD, DHT 30 mg/kg subcutaneous QD
  Hair scoring in mice, Score: 0.25
Mice [1]; Day 11, minoxidil 2% (20 mg/mL) 150 µL topical QD, DHT 30 mg/kg subcutaneous QD
  Hair scoring in mice, Score: 0.57
Mice [1]; [7]
  Hair scoring in mice, Score: 0.38
Mice [1]; Day 14, minoxidil 2% (20 mg/mL) 150 µL topical QD, DHT 30 mg/kg subcutaneous QD
  Hair scoring in mice, Score: 0.86
Mice [1]; Day 14, minoxidil 5% (50 mg/mL) 150 µL topical QD, DHT 30 mg/kg subcutaneous QD
  Hair scoring in mice, Score: 1.00
Mice [1]; Day 16, minoxidil 2% (20 mg/mL) 150 µL topical QD, DHT 30 mg/kg subcutaneous QD
  Hair scoring in mice, Score: 1.14
Mice [1]; Day 16, minoxidil 5% (50 mg/mL) 150 µL topical QD, DHT 30 mg/kg subcutaneous QD
  Hair scoring in mice, Score: 1.75
Mice [1]; Day 18, minoxidil 2% (20 mg/mL) 150 µL topical QD, DHT 30 mg/kg subcutaneous QD
  Hair scoring in mice, Score: 1.86
Mice [1]; Day 18, minoxidil 5% (50 mg/mL) 150 µL topical QD, DHT 30 mg/kg subcutaneous QD
  Hair scoring in mice, Score: 2.63
Mice [1]; Day 21, minoxidil 2% (20 mg/mL) 150 µL topical QD, DHT 30 mg/kg subcutaneous QD
  Hair scoring in mice, Score: 2.29
Mice [1]; [8]
  Hair scoring in mice, Score: 3.13
Mice [1]; Day 23, minoxidil 2% (20 mg/mL) 150 µL topical QD, DHT 30 mg/kg subcutaneous QD
  Hair scoring in mice, Score: 2.71
Mice [1]; Day 23, minoxidil 5% (50 mg/mL) 150 µL topical QD, DHT 30 mg/kg subcutaneous QD
  Hair scoring in mice, Score: 3.50
Mice [2]; Day 8, minoxidil 5% (50 mg/mL) 150 µL topical QD, DHT 30 mg/kg subcutaneous QD
  Hair scoring in mice: 0.00
Mice [2]; [7]
  Hair scoring in mice: 0.25
Mice [2]; Day 15, minoxidil 5% (50 mg/mL) 150 µL topical QD, DHT 30 mg/kg subcutaneous QD
  Hair scoring in mice: 1.25
Mice [2]; Day 17, minoxidil 5% (50 mg/mL) 150 µL topical QD, DHT 30 mg/kg subcutaneous QD
  Hair scoring in mice: 1.88
Mice [2]; Day 19, minoxidil 5% (50 mg/mL) 150 µL topical QD, DHT 30 mg/kg subcutaneous QD
  Hair scoring in mice: 2.63
Mice [2]; [8]
  Hair scoring in mice: 2.75
